Data reported in publication PMC10296347, “Identification of the Stapled α-Helical Peptide ATSP-7041 as a Substrate and Strong Inhibitor of OATP1B1 In Vitro” (Biomolecules, 2023).

Columns and labels:
OATP1B1 [1] = target: T1, OATP1B1 (Homo sapiens, UniProt Q9Y6L6)
T1 sequence (Q9Y6L6 1-691): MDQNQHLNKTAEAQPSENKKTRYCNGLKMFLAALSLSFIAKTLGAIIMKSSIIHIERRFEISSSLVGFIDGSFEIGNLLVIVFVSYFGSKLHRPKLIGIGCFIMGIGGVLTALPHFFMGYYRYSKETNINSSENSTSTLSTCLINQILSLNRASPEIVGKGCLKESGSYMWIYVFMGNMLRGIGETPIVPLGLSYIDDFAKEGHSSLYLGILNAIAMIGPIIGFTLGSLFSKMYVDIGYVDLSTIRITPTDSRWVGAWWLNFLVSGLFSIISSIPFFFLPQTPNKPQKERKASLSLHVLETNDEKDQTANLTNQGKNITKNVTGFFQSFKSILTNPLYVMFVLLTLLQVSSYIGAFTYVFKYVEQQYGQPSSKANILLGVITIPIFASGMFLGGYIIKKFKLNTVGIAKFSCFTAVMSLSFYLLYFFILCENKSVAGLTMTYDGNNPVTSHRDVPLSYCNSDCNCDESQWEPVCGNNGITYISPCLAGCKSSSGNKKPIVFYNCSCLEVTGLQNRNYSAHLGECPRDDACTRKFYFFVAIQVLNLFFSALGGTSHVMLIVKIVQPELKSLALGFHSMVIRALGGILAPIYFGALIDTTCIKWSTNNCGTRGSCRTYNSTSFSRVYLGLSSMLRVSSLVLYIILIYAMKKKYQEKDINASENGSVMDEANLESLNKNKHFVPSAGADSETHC
Method: The inhibitory activities of ATSP-7041 on OATP1B1 were evaluated using OATP1B-expressing HEK293 cells in 96-well plates as described above. For dose-dependent inhibition, ATSP-7041 at the indicated concentrations was added to the transport buffer, and E217βG was used as the substrate. To study the pre-incubation effect, the cells were pre-incubated with 10 μM ATSP-7041 or 10 μM cyclosporine in transport buffer after equilibration with the transport buffer for 30 min at 37 °C and washed twice before the replacement of the transport buffer containing E217βG.
LC/MS analysis data were quantified using Trace Finder 4.1 (Thermo Fisher Scientific, Waltham, MA, USA) for peak detection and area quantification. To study the transport activities of OATP1B1, the OATP1B1-mediated uptake of ATSP-7041 and E217βG was determined by normalization with IS (divide the area of ion peak) and subsequent background-corrected uptake using mock cells. To evaluate the inhibitory activities of ATSP-7041 on OATP1B1, transporter activities were determined as a percent of the control (activities without ATSP-7041) at each concentration, and the half maximal inhibitory concentration (IC50) for the inhibition of OATP1B1 activity by ATSP-7041 was determined by fitting a curve (inhibitor concentrations vs. normalized response) using GraphPad Prism 8 (GraphPad Software, San Diego, CA, USA). […]

in vitro = conditions: human, s9, pH 7.4
OATP1B1 [2] = target: T1, OATP1B1; assay: Uptake by OATP1B1-expressing HEK293 cells (substrate evaluation); conditions: E217βG 1 μM, 5 min, 37 °C
Method: (§1) The evaluation of ATSP-7041 as a substrate for OATP1B1 was performed using OATP1B1-expressing HEK293 cells in 24- or 96-well plates according to the manufacturer’s protocol (v1.9 for OATP1B1) with minor modifications. In brief, after equilibration with the transport buffer, the buffer was replaced with a fresh transport buffer containing the indicated concentrations of ATSP-7041 or 1 μM E217βG in the presence or absence of positive control inhibitors (50 μM rifampicin or 10 μM cyclosporine). After incubation for the indicated time at 37 °C, the cells were immediately rinsed twice with an ice-cold transport buffer. Substrates were extracted by incubation with 400 μL (for 24-well) or 100 μL (for 96-well) of 0.1% formic acid in acetonitrile-containing internal standard (IS) (0.125 μM benzyl-ATSP-7041 for ATSP-7041 in uptake experiment of various concentrations of ATSP-7041 or 0.0125 μM for ATSP-7041 in all other experiments of benzyl-ATSP-7041 and 0.1 μM estradiol-3β-glucuronide) for 5 min at 20–25 °C, filtered using a PVDF-based filter, diluted 1.4 times (ATSP-7041) or 2 times (E217βG) with water, and analyzed using LC/MS.
LC/MS analysis data were quantified using Trace Finder 4.1 (Thermo Fisher Scientific, Waltham, MA, USA) for peak detection and area quantification. […] Differences in all figures were analyzed and all data were plotted using GraphPad Prism 9 (GraphPad Software). […]

OATP1B3 = target: T2, OATP1B3 (Homo sapiens, UniProt Q9NPD5); assay: Uptake by OATP1B3-expressing HEK293 cells (substrate evaluation); conditions: E217βG 3 μM, 5 min, 37 °C
T2 sequence (Q9NPD5 1-702): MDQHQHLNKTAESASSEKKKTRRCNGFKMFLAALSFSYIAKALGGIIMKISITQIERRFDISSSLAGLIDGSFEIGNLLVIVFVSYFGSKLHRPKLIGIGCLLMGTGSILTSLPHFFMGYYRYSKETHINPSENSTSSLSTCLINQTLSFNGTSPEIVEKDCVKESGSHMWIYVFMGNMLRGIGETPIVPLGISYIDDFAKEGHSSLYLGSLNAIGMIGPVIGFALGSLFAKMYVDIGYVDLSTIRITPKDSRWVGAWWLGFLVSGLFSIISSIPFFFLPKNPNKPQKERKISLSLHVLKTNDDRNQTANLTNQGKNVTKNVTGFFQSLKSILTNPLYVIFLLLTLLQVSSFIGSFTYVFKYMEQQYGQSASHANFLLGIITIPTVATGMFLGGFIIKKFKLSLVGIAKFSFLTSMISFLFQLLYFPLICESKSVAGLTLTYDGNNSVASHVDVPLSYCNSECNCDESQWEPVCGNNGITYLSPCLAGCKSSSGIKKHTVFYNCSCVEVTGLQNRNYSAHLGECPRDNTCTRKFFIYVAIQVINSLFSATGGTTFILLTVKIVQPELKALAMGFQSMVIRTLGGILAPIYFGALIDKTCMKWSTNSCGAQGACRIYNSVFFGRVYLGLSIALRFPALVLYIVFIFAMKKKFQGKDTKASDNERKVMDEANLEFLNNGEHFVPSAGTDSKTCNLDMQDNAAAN
Method: after the time course assessment (0, 5, 10, 20, 30, 40, and 60 min). Similarly, the inhibitory […]
measuring testosterone and 6β-hydroxytestosterone at 90 min, after the time course assessment (0, 10, 20, 40, 60, 90, and 120 min). Other human liver S9 (B, C, and D) fractions were also used to evaluate vendor differences. Midazolam, 1ʹ-hydroxymidazolam, testosterone, and 6β-hydroxytestosterone were detected using LC/MS.
4. Evaluation of ATSP-7041 as a substrate of transporters
The evaluation of ATSP-7041 as a substrate for OATP1B1 and OATP1B3 transporters was performed using OATP1B-expressing HEK293 cells in 24-well plates according to the manufacturer’s protocol (v1.9 for OATP1B1 and v2.0 for OATP1B3) with minor modifications.
In brief, after equilibration with the transport buffer, the buffer was replaced with a fresh transport buffer containing ATSP-7041 (0.2 μM) or E217βG (1 μM for OATP1B1 or 3 μM for OATP1B3). After incubation for 5 min at 37 °C, the cells were immediately rinsed twice with ice-cold transport buffer. Substrates were extracted by incubation with 400 μL of 0.1% formic acid in acetonitrile containing IS (0.0125 μM benzyl-ATSP-7041 and 0.1 μM estradiol-3β-glucuronide) for 5 min at 20-25 °C, filtered using a PVDF-based filter, diluted 1.4 times (ATSP-7041) or 2 times (E217βG) with water, and analyzed by LC/MS. […]

P-gp = P-gp (Homo sapiens, UniProt P08183); assay: ATP-dependent uptake by inside-out membrane vesicles expressing P-gp; conditions: NMQ 2 μM
OATP1B1 [3] = target: T1, OATP1B1; remark: listed apart in the source
Method: as §1

BCRP = target: T3, BCRP (Homo sapiens, UniProt Q9UNQ0); assay: ATP-dependent uptake by inside-out membrane vesicles expressing BCRP; conditions: Lucifer yellow 50 μM
T3 sequence (Q9UNQ0 1-655): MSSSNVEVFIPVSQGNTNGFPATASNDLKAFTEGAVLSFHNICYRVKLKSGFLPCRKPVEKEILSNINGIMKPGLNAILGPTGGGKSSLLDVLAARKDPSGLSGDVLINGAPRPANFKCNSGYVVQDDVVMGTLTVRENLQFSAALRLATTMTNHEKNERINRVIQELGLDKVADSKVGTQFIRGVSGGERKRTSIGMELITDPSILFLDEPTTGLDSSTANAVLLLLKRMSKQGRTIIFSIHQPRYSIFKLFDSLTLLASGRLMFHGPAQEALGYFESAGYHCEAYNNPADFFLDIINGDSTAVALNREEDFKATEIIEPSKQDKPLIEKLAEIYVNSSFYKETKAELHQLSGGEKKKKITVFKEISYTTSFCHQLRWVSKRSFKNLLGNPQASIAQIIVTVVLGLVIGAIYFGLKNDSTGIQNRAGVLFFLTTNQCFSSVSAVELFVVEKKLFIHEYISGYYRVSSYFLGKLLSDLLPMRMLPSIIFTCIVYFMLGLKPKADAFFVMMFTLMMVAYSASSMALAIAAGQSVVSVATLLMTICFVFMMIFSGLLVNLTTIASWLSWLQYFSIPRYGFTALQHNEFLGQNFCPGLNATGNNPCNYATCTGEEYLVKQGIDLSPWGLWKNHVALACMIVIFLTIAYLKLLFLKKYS

P-gp, sequence (P08183 whole entry): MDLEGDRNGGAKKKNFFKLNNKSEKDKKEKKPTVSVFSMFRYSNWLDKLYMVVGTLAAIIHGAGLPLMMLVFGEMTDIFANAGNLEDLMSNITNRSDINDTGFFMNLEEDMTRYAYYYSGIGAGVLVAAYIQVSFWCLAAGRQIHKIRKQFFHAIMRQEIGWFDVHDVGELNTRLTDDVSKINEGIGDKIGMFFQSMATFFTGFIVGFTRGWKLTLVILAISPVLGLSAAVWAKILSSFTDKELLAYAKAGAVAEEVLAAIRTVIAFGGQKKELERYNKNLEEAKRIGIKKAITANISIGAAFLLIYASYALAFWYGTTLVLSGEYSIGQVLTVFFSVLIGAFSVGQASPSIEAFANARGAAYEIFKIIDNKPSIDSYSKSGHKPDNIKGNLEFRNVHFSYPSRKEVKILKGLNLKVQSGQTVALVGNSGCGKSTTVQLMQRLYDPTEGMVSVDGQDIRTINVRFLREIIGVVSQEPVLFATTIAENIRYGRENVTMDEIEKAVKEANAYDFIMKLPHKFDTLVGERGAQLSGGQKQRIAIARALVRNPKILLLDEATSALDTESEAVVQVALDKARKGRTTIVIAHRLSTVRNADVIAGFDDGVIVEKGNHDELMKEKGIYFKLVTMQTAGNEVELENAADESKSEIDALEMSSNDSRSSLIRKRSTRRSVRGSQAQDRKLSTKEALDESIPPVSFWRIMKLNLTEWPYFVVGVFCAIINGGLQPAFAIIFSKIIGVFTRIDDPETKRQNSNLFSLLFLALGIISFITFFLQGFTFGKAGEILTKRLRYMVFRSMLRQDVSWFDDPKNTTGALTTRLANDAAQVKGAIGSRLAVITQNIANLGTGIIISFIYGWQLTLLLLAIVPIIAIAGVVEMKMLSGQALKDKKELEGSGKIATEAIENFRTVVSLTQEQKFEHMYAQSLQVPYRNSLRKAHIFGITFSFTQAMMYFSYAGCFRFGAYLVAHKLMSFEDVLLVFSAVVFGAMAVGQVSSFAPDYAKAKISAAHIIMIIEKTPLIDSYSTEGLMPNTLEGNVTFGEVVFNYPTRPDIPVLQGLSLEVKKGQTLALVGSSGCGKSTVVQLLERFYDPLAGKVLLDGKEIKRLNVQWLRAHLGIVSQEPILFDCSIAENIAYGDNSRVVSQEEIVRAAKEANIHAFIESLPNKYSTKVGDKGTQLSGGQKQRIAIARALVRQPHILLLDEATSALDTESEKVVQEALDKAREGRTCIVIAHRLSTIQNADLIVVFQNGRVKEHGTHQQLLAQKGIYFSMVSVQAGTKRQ

CC(=O)N[C@@H](CC(C)C)C(=O)N[C@H](C(=O)N[C@@H](Cc1ccccc1)C(=O)N[C@]1(C)CCCCCCC=CCCC[C@@](C)(C(=O)N[C@@H](CO)C(=O)N[C@@H](C)C(=O)N[C@@H](C)C(N)=O)NC(=O)[C@H](CC2CCC2)NC(=O)[C@H](CCC(N)=O)NC(=O)[C@H](C)NC(=O)[C@H](Cc2c[nH]c3ccccc23)NC(=O)[C@H](Cc2ccc(O)cc2)NC(=O)[C@H](CCC(=O)O)NC1=O)[C@@H](C)O [ATSP-7041]
IC50 (OATP1B1 [1]): 810 nM
inhibition at 10 µM (OATP1B1 [1]): > 96%
remaining at 24 h, 0.5 μM (in vitro): 91.6%

C[C@]12CC[C@@H]3c4ccc(O)cc4CC[C@H]3[C@@H]1CC[C@@H]2O[C@@H]1O[C@H](C(=O)O)[C@@H](O)[C@H](O)[C@H]1O [E217βG, Estradiol-17β-glucuronide]
uptake of control substrate in OATP1B1-transfected HEK293 cells relative to mock cells (OATP1B1 [2]): approximately 611 fold
uptake of control substrate in OATP1B3-transfected HEK293 cells relative to mock cells (OATP1B3): ~137 fold

C=C[C@H]1C[N+]2(C)CC[C@H]1C[C@@H]2[C@@H](O)c1ccnc2ccc(OC)cc12 [NMQ, N-methyl-quinidine]
ATP-dependent uptake of positive control substrate by P-gp compared to mock vesicles (P-gp): clearly observed

CO[C@H]1/C=C/O[C@@]2(C)Oc3c(C)c(O)c4c(O)c(c(/C=N/N5CCN(C)CC5)c(O)c4c3C2=O)NC(=O)/C(C)=C\C=C\[C@H](C)[C@H](O)[C@@H](C)[C@@H](O)[C@@H](C)[C@H](OC(C)=O)[C@@H]1C [rifampicin]
uptake of control substrate E217βG by OATP1B1-expressing HEK293 cells with inhibitor, % of without inhibitor (OATP1B1 [3]; rifampicin 50 μM, E217βG 1 μM, 5 min co-incubation): < 4%
effect of index inhibitors on OATP1B1-dependent uptake of ATSP-7041 (OATP1B1 [3]; substrate ATSP-7041 0.2 μM, rifampicin 50 μM or cyclosporine 10 μM, 5 and 60 min, 37 °C): significantly inhibited

Lucifer yellow
ATP-dependent uptake of positive control substrate by BCRP compared to mock vesicles (BCRP): clearly observed
